Assay results as given in article PMC12172035, “The Thienopyrimidinone Gamhépathiopine Targets the QO Site of Plasmodium falciparum Cytochrome b” (ACS Infectious Diseases, 2025).

Target: T1, cytochrome b (Plasmodium falciparum, UniProt Q02768)
T1 construct: gene MT-CYB; native complex III in mitochondrial membrane fraction of P. falciparum 3D7 lysate; with complex III (cytochrome c1, Rieske iron-sulfur protein)
T1 sequence (Q02768 1-376): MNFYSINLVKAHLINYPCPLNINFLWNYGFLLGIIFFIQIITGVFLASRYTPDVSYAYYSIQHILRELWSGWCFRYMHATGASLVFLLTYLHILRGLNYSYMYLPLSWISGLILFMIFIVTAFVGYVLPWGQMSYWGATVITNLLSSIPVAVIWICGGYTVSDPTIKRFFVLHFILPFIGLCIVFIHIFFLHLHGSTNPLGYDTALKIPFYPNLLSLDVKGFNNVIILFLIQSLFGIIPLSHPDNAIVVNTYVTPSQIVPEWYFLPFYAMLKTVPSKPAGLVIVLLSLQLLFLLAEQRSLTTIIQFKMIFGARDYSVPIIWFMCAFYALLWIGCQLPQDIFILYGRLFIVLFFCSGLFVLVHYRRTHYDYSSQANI
Test: complex III activity assay (decylubiquinol-driven cytochrome c reduction, […] nm) in P. falciparum membrane-enriched lysate; supported by resistance mutations in cytochrome b
Format: cell-based

## Cc1ccc(-c2cc3nc(NC(C)(C)C)[nH]c(=O)c3s2)cc1 [gamhépathiopine]
  inhibition at 20 µM: > 93%
